The test system of test [1] is mice with spinal cord hemisection. Description: Vertical screen test after spinal cord hemisection. It is filed as in vivo, mouse. To be noted: intracerebroventricular injection, compared to vehicle. The protocol:
(§1) Animals were anaesthetized with a intraperitoneal mixture of Ketaminol (2 mg/20 g body weight, Intervet) and Rompun (0.25 mg/20 g body weight, Bayer). After laminectomy at C5 vertebral level, the dura was carefully removed. The right cervical spinal hemicord was transected with a 25G syringe needle from midline dorsal vessel to the lateral side. Bleeding was controlled with haemostatic gelatin sponge. Muscle and skin were sutured with 6-0 monocryl. 30 min before surgery and during following 3 days mice were treated with antibiotic Borgal (30 mg/kg, Intervet). Body weight and bladder expression were checked for 7 days, and animal received Rimadil (5 mg/kg, Pfizer) and Rapidexon (0.2 mg/kg, Evrovet) to control pain and inflammatory swelling until they stop to lose body weight.
Vertical screen (VS). The mouse was placed on a very brink of horizontal wire screen (25×22 cm, diameter of wires 2 mm spaced at 1 cm) faced to edge. Immediately after that the screen was turned vertically to place mouse to upside down position at the lower edge. The time that animal was needed to climb to the upper edge were measured during 1 min. This test was repeated every second week starting from 1st week after surgery.
(§2) Statistic. Data obtained from Vertical screen test were analyzed by one-way ANOVA followed by post-hoc Newman-Keuls test for detection of group differences. […]

Test [2] shares this test system. Description: Cylinder test of limb use asymmetry after spinal cord hemisection. Type of test: in vivo, mouse. To be noted: intracerebroventricular injection, compared to vehicle. The protocol:
as §1
Cylinder Test of Limb Use Asymmetry. Mouse was placed to glass cylinder 10 cm in diameter and 14 cm high. Mirror was position at the angle behind of cylinder for better observation. […] The number of rearing in which mouse used right (impaired), left or both limbs for support against the wall were measured. Paw preference were calculated as ratio of total number of left limb use (left+both) to total number of right (impaired) limb use (right+both).
as §2

In test [3] the test system is embryonic rat cortical neurons. The experiment in a line: Neurite outgrowth assay on aggrecan-coated substrate, cortical neurons. Type of test: cell-based. To be noted: E17 rat cortical neurons, plates precoated with aggrecan 10 μg/ml, cultured 1.5-3.5 days. The protocol: (§3) Cortical or hippocampal neurons from E17 rat embryos were plated at 50,000 cells/cm2 on plastic cell culture plates. Plates were precoated with aggrecan or IgG (10 μg/ml). Protamine, or derived peptides, were precoated together with aggrecan or added to culture medium when plating neurons. Cells were cultured for 1.5-3.5 days and after that images of cell cultures were taken using phase contrast microscope with ×20 objective. Neurite length was quantified using ImagePro software. Mouse neurons were immunostained with anti-tubulin βIII antibodies and imaged using fluorescent microscope.

Test [4] deals with embryonic rat hippocampal neurons. Description: Neurite outgrowth assay on aggrecan-coated substrate, hippocampal neurons. It is filed as cell-based. To be noted: E17 rat hippocampal neurons, plates precoated with aggrecan 10 μg/ml. The protocol: as §3
For test [5], the system named is Mutant RPTPσ, with a defective CSPG-binding site. The experiment in a line: RPTPσ binding assay (ELISA, biotinylated aggrecan), mutant RPTPσ. Details: species or system mouse. To be noted: negative control, biotinylated aggrecan 5 μg/ml, protamine 0-5 μg/ml. The source says:
(§4) Protamine (salmon) and protamine sulphate (herring) were from Sigma, protamine sulphate (salmon) was from Leo Pharma. Bovine aggrecan was from Sigma. The DNA sequence (the template cDNA clone MGC:63375 IMAGE:6834684) of the CSPG-binding domain of mouse RPTPσ was used for Fc-tagged RPTPσ protein production. Peptides derived from the protamine sequence were custom synthesised by CASLO ApS (Denmark).
(§5) The Fc-tagged extracellular domain of RPTPσ was immobilized on protein G-coated plates. Binding of biotinylated aggrecan to RPTPσ was quantified via colorimetric assay using streptavidin-conjugated horse radish peroxidise. Experiments were done by using protein G coated 96 well plates (Pierce, prod. #15133). Wells were first washed briefly with PBS, 0.05% Tween-20 solution. RPTPσ wild type and mutant FC-fusion proteins were diluted into 2 μg/ml solution in buffer containing PBS, 1% BSA, 0.05% Tween-20. 150 μl of protein solution was added into the wells and plates were left for shaking at +RT for 1 hour. […] Detection of bound Streptavidin-Peroxidase Polymer was done by adding 200 μl of OPD (o-Phenylenediamine dihydrochloride, SIGMA P9187) substrate into the wells and was measured by reading the absorbance at 450 nm (A450).
(§6) Aggrecan binding to RPTPσ was assessed via ELISA using Fc-tagged RPTPσ and biotinylated aggrecan. Binding was quantified using streptavidin-bound horse radish peroxidase. […]

The next test concerns wild type RPTPσ. The experiment in a line: RPTPσ binding assay (ELISA, biotinylated aggrecan), wild type RPTPσ. To be noted: FIG. 4. Details: species or system mouse.
Description: as §4, §5, §6

Entries after “also recorded” stand apart in the source; their conditions may differ.

Consider VSRRRRRRGGRRRR [Peptide 12], for which the “time used in the vertical climbing test (vertical screen)” value in test [1] is on record as “improves functional recovery”; in test [1] (listed as protamine peptide 12) it was “becomes shortened compared to injection of the vehicle only”. Further, the entries for the “limb usage on the affected side (cylinder test)” value in test [2] and in test [2] (listed as protamine peptide 12) were “improves functional recovery” and “enhances limb usage on the affected side compared to the vehicle”, respectively. Besides, the “neuronal attachment and neurite growth on the aggrecan-coated substrate” value (“neuronal attachment and neurite growth” below) in test [3] was “overcome the inhibitory action of aggrecan, promoting neuronal attachment and neurite growth; also recorded: displayed activity”.

Take SRPVRRRRRPRVSRRRRRRGGRRRR [Peptide 2]: in test [3], the “neuronal attachment and neurite growth” value was “overcome the inhibitory action of aggrecan, promoting neuronal attachment and neurite growth; also recorded: displayed activity”.

For the sequence SRPVRRRRRPRVS [Peptide 3], the “neuronal attachment and neurite growth” value in test [4] was “overcomes the inhibitory action of aggrecan, promoting neuronal attachment and neurite growth”.

Consider “MPRRRRSSSRPVRRRRRPRVSRRRRRRGGRRRR (Genus/Species name of salmon disclosed by SEQ ID NO 1 is not known) [Protamine, small arginine-rich nuclear protein, from Sigma]”, for which the “aggrecan binding to mutant RPTPσ” value in test [5] was “not affected”. Further, the “amount of aggrecan binding to RPTPσ (in words)” value in the test with wild type RPTPσ is “increases the amount of aggrecan binding to RPTPσ”. In addition, in test [3], the “neuronal attachment and neurite growth” value is “overcomes the inhibitory action of aggrecan, promoting neuronal attachment and neurite growth; also recorded: overcame this inhibitory action of aggrecan, promoting neuronal attachment and neurite growth; also recorded: active as both the free protein and as sulphate salt”.

For the origin of these results see US10160791B2, “Protamine in treatment of neuronal injuries” (UNIVERSITY OF HELSINKI, priority 2013, dated 2018).
